Test [1] in a line: (§1) In Vitro GIRK Thallium Flux Assay (60 minutes): Human Embryonic Kidney (HEK-293) cell lines co-expressing rat mGlu receptors 2, 3, 4, 6, 7 or 8 and G protein-coupled inwardly-rectifying potassium (GIRK) channels_ENREF_54 were grown in Growth Media containing 45% DMEM, 45% F-12, 10% FBS, 20 mM HEPES, 2 mM L-glutamine, antibiotic/antimycotic, non-essential amino acids, 700 μg/ml G418, and 0.6 μg/ml puromycin at 37° C. in the presence of 5% CO2. All cell culture reagents were purchased from Invitrogen Corp. (Carlsbad, Calif.) unless otherwise noted. Compound activity at the group II (mGlu2 and mGlu3) mGlus was assessed using thallium flux through GIRK channels. Briefly, cells were plated into 384-well, black-walled, clear-bottomed poly-D-lysine-coated plates at a density of 15,000 cells/20 μL/well in DMEM containing 10% dialyzed FBS, 20 mM HEPES, and 100 units/mL penicillin/streptomycin (assay media). Plated cells were incubated overnight at 37° C. in the presence of 5% CO2. The following day, the medium was exchanged from the cells to assay buffer [Hanks' balanced salt solution (Invitrogen) containing 20 mM HEPES, pH 7.3] using an ELX405 microplate washer (BioTek), leaving 20 μL/well, followed by the addition of 20 μL/well FluoZin2-AM (330 nM final concentration) indicator dye (Invitrogen; prepared as a stock in DMSO and mixed in a 1:1 ratio with Pluronic acid F-127) in assay buffer. Cells were incubated for 1 h at room temperature, and the dye exchanged to assay buffer using an ELX405, leaving 20 μL/well. Test compounds were diluted to 2 times their final desired concentration in assay buffer (0.3% DMSO final concentration). Agonists were diluted in thallium buffer [125 mM sodium bicarbonate (added fresh the morning of the experiment), 1 mM magnesium sulfate, 1.8 mM calcium sulfate, 5 mM glucose, 12 mM thallium sulfate, and 10 mM HEPES, pH 7.3] at 5 times the final concentration to be assayed. Cell plates and compound plates were loaded onto a kinetic imaging plate reader (FDSS 6000 or 7000; Hamamatsu Corporation, Bridgewater, N.J.). Appropriate baseline readings were taken (10 images at 1 Hz; excitation, 470±20 nm; emission, 540±30 nm) and test compounds were added in a 20 μL volume and incubated for either 2.5 min or 60 min as indicated before the addition of 10 μL of thallium buffer with or without agonist. After the addition of agonist, data were collected for approximately an additional 60 min. Data were analyzed using Excel (Microsoft Corp, Redmond, Wash.). The slope of the fluorescence increase beginning 5 s after thallium/agonist addition and ending 15 s after thallium/agonist addition was calculated, corrected to vehicle and maximal agonist control slope values, and plotted in using either XLfit (ID Business Solutions Ltd) or Prism software (GraphPad Software, San Diego, Calif.) to generate concentration-response curves. Potencies were calculated from fits using a four-point parameter logistic equation. For concentration-response curve experiments, compounds were serially diluted 1:3 into 10 point concentration response curves and were transferred to daughter plates using an Echo acoustic plate reformatter (Labcyte, Sunnyvale, Calif.). Test compounds were applied and followed by EC80 concentrations of glutamate. As to conditions: HEK293, 1 h.

Test [2] in a line: as §1. Particulars: HEK293, 1 h. The source holds these as a separate data set.

This passage reports EC50 results from ChEMBL document CHEMBL5727031, “Metabotropic glutamate receptor negative allosteric modulators (NAMS) and uses thereof” (2018).

As usually defined, the EC50 is the midpoint of the concentration-response curve.

SMILES strings stand for the structures.

Consider `O=C(O)c1ccccc1-c1cccc(-c2csc(-c3ccccc3)n2)c1`, for which the EC50 in test [1] and in test [2] was over 10 µM throughout. Turning to `O=C(O)c1cccc(-c2cccc(-c3coc(-c4ccccc4)n3)c2)c1`, in test [2], the EC50 was over 10 µM. Regarding `O=C(O)c1cc(-c2ccc(-c3csc(-c4ccccc4)n3)cc2)ccc1F`, the EC50 in test [1] is over 30 µM. As to `O=C1CC(c2cccc(Br)c2)Nc2ccc(NC(=O)OCc3ccccc3)cc2N1` (configuration not stated), the EC50 in test [1] was over 10 µM. As to `O=C(O)c1ccccc1-c1cccc(-c2nc(-c3ccccc3)n(-c3ccccc3)n2)c1`, the EC50 is over 30 µM in test [1] and over 10 µM in test [2]. Turning to `O=C(O)c1cc(-c2cccc(Oc3nc(-c4ccco4)cc(C(F)(F)F)n3)c2)ccc1F`, in test [1], the EC50 is over 30 µM. With `COc1ccc(-c2cccc(-c3nc(-c4ccco4)cc(C(F)(F)F)n3)c2)cc1C(=O)O`, the EC50 in test [2] was over 10 µM. For the molecule `NS(=O)(=O)c1cccc(-c2cn(-c3nc(-c4ccc(C(F)(F)F)nc4)cc(C(F)(F)F)n3)cn2)c1`, the EC50 in test [1] is over 10 µM. For the molecule `Cc1ccccc1-c1cc(C(F)(F)F)nc(-c2cccc(-c3ccc(F)c(C(=O)O)c3)c2)n1`, the EC50 in test [2] is over 10 µM. As to `CC(C)(C)OC(=O)Nc1ccc(C(=O)OC(C)(C)C)cc1NC(=O)CC(=O)c1ccnc(C#N)c1`, in test [1], the EC50 is over 30 µM.

For `O=C(O)c1ccccc1-c1cccc(-c2nc(-c3ccc(C(F)(F)F)nc3)cc(C(F)(F)F)n2)c1`, the EC50 in test [1] and in test [2] was over 10 µM throughout. Take `Cc1cc2c(cc1C(F)(F)F)NC(=O)CC(c1cccc(Br)c1)=N2`: the EC50 in test [1] and in test [2] was over 10 µM throughout. Turning to `c1ccc(-c2cccc(-c3csc(-c4ccccc4)n3)c2)cc1`, the EC50 in test [2] was over 10 µM. As to `Cc1cc2c(cc1C(F)(F)F)NC(=O)CC(c1cccc(C#C[Si](C)(C)C)c1)N2` (configuration not stated), the EC50 in test [1] is 4.47 µM; in test [2], 4.53 µM.

Regarding `O=C(O)c1cccc(-c2cccc(-c3nc(-c4ccccc4)nn3-c3ccccc3)c2)c1`, the EC50 in test [1] and in test [2] was over 10 µM each time. Regarding `O=C(O)c1cccc(-c2cccc(-c3cn(-c4ccccc4)c(-c4ccccc4)n3)c2)c1`, in test [1], the EC50 was over 10 µM. Same read-out and setting: the figure for `Cc1cc2c(cc1C(F)(F)F)NC(=O)CC(c1cccc(Oc3cccc(Br)c3)c1)=N2` is over 10 µM. With `c1ccc(-c2nc(-c3cccc(-c4cccc(-c5nn[nH]n5)c4)c3)cs2)cc1`, the EC50 in test [2] is over 10 µM. With `Cc1cc(NC(=O)OC(C)(C)C)c(NC(=O)CC(=O)c2cccc(-n3ccc4ccccc43)c2)cc1C(F)(F)F`, the EC50 in test [1] and in test [2] was over 10 µM in each case. For the molecule `O=C(O)c1cccc(-c2cccc(-c3cc(-c4ccccc4)sn3)c2)c1`, in test [2], the 50% effective concentration (EC50) was over 10 µM. Take `Cc1cc2c(cc1C(F)(F)F)NC(=O)CC(c1cccc(Oc3ccccc3)c1)N2` (configuration not stated): the EC50 in test [1] and in test [2] was over 10 µM throughout. For `O=C(O)c1cc(-c2cccc(-c3nc(-c4cc(C(F)(F)F)cc(C(F)(F)F)c4)cc(C(F)(F)F)n3)c2)ccc1F`, the EC50 in test [2] is over 10 µM. For `O=C(O)c1ccc(-c2cccc(-c3nc(-c4ccc(C(F)(F)F)nc4)cc(C(F)(F)F)n3)c2)cc1`, the EC50 in test [1] and in test [2] was over 10 µM in each case. In the case of `Cc1cc2c(cc1C(F)(F)F)NC(=O)CC(c1cccc(Oc3cc(F)cc(F)c3)c1)=N2`, the EC50 in test [1] was over 10 µM. Consider `Cc1noc(C)c1-c1cc(C(F)(F)F)nc(-c2cccc(-c3ccc(F)c(C(=O)O)c3)c2)n1`, for which the EC50 in test [1] and in test [2] was over 10 µM each time.

In the case of `O=C1CC(c2ccnc(Br)c2)=Nc2ccc(-c3ccc(C(F)(F)F)cc3C(F)(F)F)cc2N1`, in test [2], the EC50 was over 10 µM. On to `Cc1cc(-c2cccc(C3CC(=O)Nc4cc(NC(=O)Oc5ccccc5)ccc4N3)c2)cc(C)n1` (configuration not stated), for which the EC50 in test [1] and in test [2] was over 10 µM each time. Consider `O=C(O)c1cc(-c2cccc(-c3cnc(-c4ccccc4)s3)c2)ccc1F`, for which the EC50 in test [2] was over 10 µM. With `N#Cc1cccc(C2=Nc3ccc(Br)cc3NC(=O)C2)c1`, the EC50 in test [1] and in test [2] was over 30 µM each time.

Turning to `Cc1cc2c(cc1C(F)(F)F)NC(=O)CC(c1cccc(OCc3ccccc3)c1)N2` (configuration not stated), the EC50 in test [1] was over 10 µM.
